Reference: ChEMBL document CHEMBL6078706, “Deciphering the Comprehensive Structure-Activity Relationship of Sunshinamide for Breast Cancer Therapy through Dual Modulation of Apoptotic and Ferroptotic Pathways via TrxR1 and Gpx4 Inhibition” (J Med Chem, 2024)
Activity calls are given as the source filed them. The rule behind the calls is not given here.

Key:
[1] = system: HEK293; assay: Antiproliferative activity against human HEK293 cells assessed as cell viability upto 50 nM incubated for 48 hrs by MTT assay; type: toxicity, cell-based; settings: hek293, 48 h, 0.05 µM
[2] = biological target: T1, Thioredoxin reductase 1, cytoplasmic (Homo sapiens) (UniProt Q16881); assay: Inhibition of TRXR1 in human MDA-MB-468 cells incubated for 24 hrs by; type: cell-based
T1 sequence (whole entry): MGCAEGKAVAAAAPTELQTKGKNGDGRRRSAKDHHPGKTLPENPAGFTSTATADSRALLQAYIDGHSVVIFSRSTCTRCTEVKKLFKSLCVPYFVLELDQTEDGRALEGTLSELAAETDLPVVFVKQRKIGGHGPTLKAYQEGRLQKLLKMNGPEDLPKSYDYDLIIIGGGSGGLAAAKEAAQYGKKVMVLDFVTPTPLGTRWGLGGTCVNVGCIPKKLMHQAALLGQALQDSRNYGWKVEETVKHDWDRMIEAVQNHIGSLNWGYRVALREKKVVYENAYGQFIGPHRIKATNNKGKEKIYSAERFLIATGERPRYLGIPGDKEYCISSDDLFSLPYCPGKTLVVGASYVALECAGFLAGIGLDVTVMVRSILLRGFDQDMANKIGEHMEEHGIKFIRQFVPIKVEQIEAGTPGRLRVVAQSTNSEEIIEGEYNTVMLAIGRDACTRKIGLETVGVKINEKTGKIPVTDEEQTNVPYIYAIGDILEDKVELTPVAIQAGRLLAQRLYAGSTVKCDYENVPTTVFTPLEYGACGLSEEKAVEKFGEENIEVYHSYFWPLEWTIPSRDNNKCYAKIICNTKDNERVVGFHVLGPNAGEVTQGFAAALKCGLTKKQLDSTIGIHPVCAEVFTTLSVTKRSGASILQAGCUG

[3] = biological target: T1, Thioredoxin reductase 1, cytoplasmic (Homo sapiens); assay: Inhibition of recombinant TRXR1 (unknown origin) assessed as reduction in DTNB incubated for 2 hrs in presence of NADPH by microplate reader analysis
[4] = system: MDA-MB-468; assay: Induction of ROS production in human MDA-MB-468 cells expressing TrxR1 assessed as reduction in ROS level at 25 nM incubated for 6 hrs by DCFH-DA staining based flow cytometry analysis; type: functional, cell-based
[5] = system: MDA-MB-468; assay: Antiproliferative activity against human MDA-MB-468 cells expressing TrxR1 assessed as reduction in cell viability at 50 nM incubated for 48 hrs by MTT assay; type: functional, cell-based
[6] = system: MDA-MB-468; assay: Induction of endoplasmic reticulum (ER) stress-mediated apoptosis in human MDA-MB-468 cells assessed as increase in p-PERK level at 25 nM measured after 12 hrs by Western blot analysis; type: functional, cell-based
[7] = system: MDA-MB-468; assay: Induction of endoplasmic reticulum (ER) stress-mediated apoptosis in human MDA-MB-468 cells assessed as increase in phospho-eIF2alpha level at 25 nM measured after 12 hrs by Western blot analysis; type: functional, cell-based
[8] = system: MDA-MB-468; assay: Induction of endoplasmic reticulum (ER) stress-mediated apoptosis in human MDA-MB-468 cells assessed as increase in CHOP expression at 25 nM measured after 12 hrs by Western blot analysis; type: functional, cell-based
[9] = system: MDA-MB-468; assay: Induction of endoplasmic reticulum (ER) stress-mediated apoptosis in human MDA-MB-468 cells assessed as reduction in ATF4 expression at 25 nM measured for 12 hrs in presence of 4-PBA by Western blot analysis; type: functional, cell-based
[10] = system: MDA-MB-468; assay: Induction of endoplasmic reticulum (ER) stress-mediated apoptosis in human MDA-MB-468 cells assessed as reduction in CHOP expression at 25 nM measured for 12 hrs in presence of 4-PBA by Western blot analysis; type: functional, cell-based
[11] = system: MDA-MB-468; assay: Induction of apoptosis in human MDA-MB-468 cells assessed as increase in caspase 3/7 activation at 25 nM measured at 12 hrs in presence of 4-PBA by Western blot analysis; type: functional, cell-based
[12] = system: MDA-MB-468; assay: Induction of apoptosis in CHOP knockdown human MDA-MB-468 cells assessed as increase in caspase 3/7 activation at 25 nM measured at 12 hrs by Western blot analysis; type: functional, cell-based
[13] = system: MDA-MB-468; assay: Induction of ferroptosis in human MDA-MB-468 cells assessed as increase in cell viability at 25 nM incubated for 48 hrs in presence of Z-VAD; type: functional, cell-based
[14] = system: MDA-MB-468; assay: Induction of ferroptosis in human MDA-MB-468 cells assessed as lipid peroxidation level by measuring fluorescence intensity at 25 nM incubated for 6 hrs in presence of ferrostatin-1 by C11-BODIPY staining based microscopic analysis; type: functional, cell-based
[15] = system: MDA-MB-468; assay: Induction of ferroptosis in human MDA-MB-468 cells assessed as increase in MDA level at 25 nM; type: functional, cell-based
[16] = system: MDA-MB-468; assay: Induction of ferroptosis in human MDA-MB-468 cells assessed as increase in 4-HNE level at 25 nM; type: functional, cell-based
[17] = system: MDA-MB-468; assay: Induction of ferroptosis in human MDA-MB-468 cells assessed as decrease in 4-HNE level at 25 nM in presence of ferrostatin-1; type: functional, cell-based
[18] = biological target: T2, Cystine/glutamate transporter (Homo sapiens) (UniProt Q9UPY5); assay: Inhibition of Xc- in human MDA-MB-468 cells assessed as decrease in glutamate release at 25 nM incubated for 12 hrs; type: cell-based
T2 sequence (whole entry): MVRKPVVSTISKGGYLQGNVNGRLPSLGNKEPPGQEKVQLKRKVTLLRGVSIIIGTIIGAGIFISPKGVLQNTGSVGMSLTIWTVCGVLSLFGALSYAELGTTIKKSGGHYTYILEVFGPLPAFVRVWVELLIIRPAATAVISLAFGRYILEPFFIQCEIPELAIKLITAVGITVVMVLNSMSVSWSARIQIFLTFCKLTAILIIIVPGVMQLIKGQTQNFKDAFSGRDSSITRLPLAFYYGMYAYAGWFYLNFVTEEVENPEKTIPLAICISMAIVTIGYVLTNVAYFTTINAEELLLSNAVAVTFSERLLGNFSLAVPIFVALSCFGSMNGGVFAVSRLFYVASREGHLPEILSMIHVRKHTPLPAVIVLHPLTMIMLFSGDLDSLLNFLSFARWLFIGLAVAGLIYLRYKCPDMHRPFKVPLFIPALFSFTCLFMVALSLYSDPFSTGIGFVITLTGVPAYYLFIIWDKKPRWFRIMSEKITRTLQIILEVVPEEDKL

[19] = system: MDA-MB-468; assay: Induction of ferroptosis in human MDA-MB-468 cells assessed as reduction in intracellular GSH level at 25 nM incubated for 12 hrs; type: functional, cell-based
[20] = biological target: T3, Phospholipid hydroperoxide glutathione peroxidase GPX4 (Homo sapiens) (UniProt P36969); assay: Inhibition of GPX4 in human MDA-MB-468 cells incubated for 12 hrs in presence of NADPH; type: cell-based; settings: dose 25.0 nM
T3 sequence (whole entry): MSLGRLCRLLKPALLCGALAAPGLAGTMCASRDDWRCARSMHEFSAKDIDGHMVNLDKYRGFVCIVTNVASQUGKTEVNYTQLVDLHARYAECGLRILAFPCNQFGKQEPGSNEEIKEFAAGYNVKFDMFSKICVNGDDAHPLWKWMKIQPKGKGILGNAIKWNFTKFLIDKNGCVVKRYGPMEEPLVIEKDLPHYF

[21] = system: MDA-MB-468; assay: Antiproliferative activity against human MDA-MB-468 cells expressing GPX4 assessed as cell viability at 25 nM incubated for 48 hrs by MTT assay; type: functional, cell-based

| SMILES | Activity [1] | inhibition [2] | inhibition [3] | Activity [4] | Activity [5] | Activity [6] | Activity [7] | Activity [8] | Activity [9] | Activity [10] | Activity [11] | Activity [12] | Activity [13] | Activity [14] | Activity [15] | Activity [16] | Activity [17] | inhibition [18] | Activity [19] | inhibition [20] | other results |
| --- | --- | --- | --- | --- | --- | --- | --- | --- | --- | --- | --- | --- | --- | --- | --- | --- | --- | --- | --- | --- | --- |
| CCCCCCC[C@@H](O)CC(=O)N[C@H](Cc1ccccc1)C(=O)N[C@H]1CSSC[C@@H](C(=O)O)NC1=O | Non-toxic | Active | inactive | Active | Active | inactive | inactive | inactive | inactive | inactive | Active | Active | inactive | Active | inactive | inactive | Active | inactive | inactive | Dose-dependent-effect | Activity [21]: inactive |
| CCCCCCC[C@@H]1CC(=O)N[C@H](Cc2ccccc2)C(=O)N[C@@H](CSC)C(=O)N[C@@H](CSC)C(=O)O1 | Non-toxic | Active | inactive | Active | Active | inactive | inactive | inactive | inactive | inactive | Active | Active | inactive | Active | inactive | inactive | Active | inactive | inactive | Dose-dependent-effect | Activity [21]: inactive |
| CCCCCCC[C@@H]1CC(=O)N[C@H](Cc2ccccc2)C(=O)N[C@H]2CSSC[C@H](NC2=O)C(=O)O1 | Non-toxic | Active | Active | Active | Active | Active | Active | Active | Active | Active | Active | Active | inactive | Active | inactive | inactive | Active | inactive | inactive | Dose-dependent-effect | Activity [21]: inactive |
